Source: publication PMC4919643, “Intestinally-targeted TGR5 agonists equipped with quaternary ammonium have an improved hypoglycemic effect and reduced gallbladder filling effect” (Scientific Reports, 2016)
Values after ≈ are worked out from the molar mass of the structure shown. One block for each compound: values may come before it.

Assays:
ICR mice [1] = assay: Gallbladder filling assay in ICR mice; assay type: in vivo, mouse; conditions: once a day oral dose 50 mg/kg
Protocol: Figure 4 (A) Relative gallbladder area and (B) relative bile weight after once a day oral dose. After the OGTT experiment, mice were refed for 3 h, the gallbladder was removed and the area measured using a vernier caliper. The relative gallbladder area was calculated from the length multiplied by the width of the gallbladder. Bile weight was measured using analytical balances. *p < 0.05; **p < 0.01; ***p < 0.001. Error bar indicates SEM.
Caco-2 permeability determination. Caco-2 permeability determination was carried out according to (Eur. J. Med. Chem. 2014, 82, 1-15). […]
Drug transport from the apical side to the basolateral side (A-B) and from the basolateral side to the apical side was measured simultaneously under the same condition. […]
Digoxin was used as the positive control for Pgp-mediated drug efflux. […] The concentration of samples was measured by LC-MS/MS. The Papp was calculated from the following equation: […]
(§1) mice (n = 7-8) 90 min prior to the oral glucose load (4 g/kg). Blood glucose levels were measured via blood drops obtained by clipping the tail of the mice using an Accu-Chek Advantage II Glucose Monitor (Roche, Indianapolis, IN, USA) before compound dosing and 0, 15, 30, 60, and 120 min after the glucose load. The area under the concentration−time curve from 0 to 120 min (AUC0−120 min, Glu) of blood glucose after the glucose load was calculated by the trapezoidal rule. […]

[2] = Caco-2 permeability determination; assay type: in vitro ADME; conditions: human
Protocol: (§2) Caco-2 permeability determination. Caco-2 permeability determination was carried out […]
(§3) Caco-2 cells were obtained from the ATCC (Cat#HTB-37) and maintained in Dulbecco’s modified Eagle’s Medium containing 10% fetal bovine serum, 1% glutamine, 1% nonessential amino acids, 100 μg/mL streptomycin, and 100 U/mL penicillin.
(§4) CO2 and 90% relative humidity environment. Caco-2 cells were passaged every 7 days at a ratio of 1:10. Cells were used between passages 30 and 40. After 21 days of culture, the integrity of the cell monolayer was verified by measuring the transepithelial electrical […]
(§5) Drug transport from the apical side to the basolateral side (A-B) and from the basolateral side to the apical side was measured simultaneously under the same condition.
(§6) Propranolol and atenolol were used as the […] control, respectively.
(§7) Digoxin was used as the positive control for Pgp-mediated drug efflux. In brief, the method was as follows. After washing the monolayer with HBSS three times, the compounds were diluted and added to the appropriate well (pH 6.8 for apical side and pH […]
(§8) 7.4 for basolateral side). […] Samples were […]
(§9) collected from the donor side at 5 and 95 min, and from the receiver side at 35 and 95 min post-incubation. The concentration of samples was measured by LC-MS/MS. The Papp was calculated from the following equation:
(§10) Papp = (VA/(SA×T))×([drug]acceptor/ [durg]initial donor )
(§11) Where VA is the volume of the acceptor well, SA is the surface area of the membrane, T is the total transport time, [drug]acceptor is the drug level at the acceptor side, and [drug]initial donor is the drug level at the donor side at T = 0. […]

[3] = In vitro microsomal stability assay (human); assay type: in vitro ADME; conditions: human liver microsomes
Protocol: (§12) Acetonitrile (containing 0.1% formic acid; C (MeOH with 1% TFA). Flow rate: 0.6 […]
(§13) Data system: Masslynx 4.1 (Waters).
(§14) In vitro microsomal stability assay. The test compound was dissolved in DMSO and diluted to the desired concentration with DMSO and 0.1% aqueous BSA. Liver microsomes were incubated in a 96-well plate containing 0.1 M Tris buffer (pH 7.4), 0.33 mg/mL microsomal protein, 0.1 mM test compound, 5.0 mM MgCl2, 0.005% BSA, and 1.0 mM NADPH. Incubations were conducted at 37 °C. An aliquot was removed at each time point and the enzymatic reaction was stopped by protein precipitation in MeOH. The loss of the test compound was determined by LC-MS/MS. The intrinsic clearance (CLint, mL/min/g) was calculated from the following equation: […]
(§15) Where k (min-1) is the slope of the line of the natural log of the percentage parent remaining versus the time of incubation; P is the microsomal protein concentration

human TGR5 = molecular target: T1, human TGR5 (Homo sapiens, UniProt Q8TDU6); assay: In vitro TGR5 reporter gene assay (hTGR5/CRE/HEK293)
T1 sequence (Q8TDU6 1-330): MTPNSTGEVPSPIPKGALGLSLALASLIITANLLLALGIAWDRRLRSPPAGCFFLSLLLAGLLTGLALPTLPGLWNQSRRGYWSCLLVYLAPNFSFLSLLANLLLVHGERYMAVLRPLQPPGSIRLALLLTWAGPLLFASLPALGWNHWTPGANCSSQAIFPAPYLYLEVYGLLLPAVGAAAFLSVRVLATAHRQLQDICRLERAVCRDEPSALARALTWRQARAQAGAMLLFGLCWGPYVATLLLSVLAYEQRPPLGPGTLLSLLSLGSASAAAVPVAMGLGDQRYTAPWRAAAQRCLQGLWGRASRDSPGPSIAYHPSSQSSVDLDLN

[4] = In vitro microsomal stability assay (mice); assay type: in vitro ADME; conditions: mice liver microsomes
Protocol: as §12, §13, §14, §15

mouse TGR5 = molecular target: T2, mouse TGR5 (Mus musculus, UniProt Q80SS6); assay: In vitro TGR5 reporter gene assay (mTGR5/CRE/HEK293)
T2 sequence (Q80SS6 1-329): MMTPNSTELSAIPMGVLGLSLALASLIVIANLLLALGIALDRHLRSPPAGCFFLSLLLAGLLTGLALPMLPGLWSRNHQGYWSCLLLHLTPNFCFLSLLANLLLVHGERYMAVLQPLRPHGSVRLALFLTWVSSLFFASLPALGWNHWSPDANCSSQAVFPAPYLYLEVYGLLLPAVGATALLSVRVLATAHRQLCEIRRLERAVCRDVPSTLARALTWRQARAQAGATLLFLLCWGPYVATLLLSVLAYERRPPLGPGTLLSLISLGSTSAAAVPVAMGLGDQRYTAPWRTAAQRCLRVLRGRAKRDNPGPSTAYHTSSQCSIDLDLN

ob/ob mice = assay: Hypoglycemic effect of 3 in diabetic model ob/ob mice; assay type: in vivo, mouse
ICR mice [5] = tested on: ICR mice; set-up: method as in PMID 25710631; conditions: normal mice (ICR mice); cited from earlier work
Caco-2 cells = assay: Caco-2 permeability determination; assay type: in vitro ADME
Protocol: as §2, §3, §4, §5, §6, §7, §8, §9, §10, §11

[6] = Solubility in water determined by LC-MS/MS; assay type: physicochemical
ICR mice [7] = assay: Oral glucose tolerance test (OGTT) in ICR mice; assay type: in vivo, mouse
Protocol: Blood glucose levels were measured berefore and after glucose loading. *p < 0.05, **p < 0.01 vs. control. Error bar indicateds SEM (standard error of the mean). […]
Oral glucose tolerance test (OGTT) and gallbladder filling assay in ICR mice. 100 […]
as §1

[8] = Solubility as noted in the SAR discussion; assay type: physicochemical; conditions: compounds containing Br
[9] = Caco-2, apical to basolateral side
[10] = Caco-2, basolateral to apical side

- melting point: 120 °C
- increase of gallbladder area vs control (ICR mice [1]): 210%
- efflux ratio at 95 min ([2]; Caco-2): 0.8
- Papp A→B at 95 min [2, 9]: 0.55 ×10⁻⁶ cm/s
- Papp B→A at 95 min [2, 10]: 0.43 ×10⁻⁶ cm/s
- liver microsomal clearance (CLint) [3]: 1631 mL/min/g
- EC50 (human TGR5): 0.55 nM
- liver microsomal clearance (CLint) [4]: 1390 mL/min/g
- EC50 (mouse TGR5): 2.8 nM
Structure (SMILES): O=C(c1sccc1Oc1cc(Cl)ccc1Cl)N1CCN(C2CC2)c2ccccc21 [Compound 9a]

- melting point: 88 °C
- EC50 (human TGR5): 76 ± 9.8 nM
Structure (SMILES): CN1CCN(C(=O)c2sccc2Oc2ccc(C(F)(F)F)cc2)c2ccccc21 [Compound 9h]

Structure (SMILES): O=C(CCc1cc(Cl)c(Oc2ccncc2C(=O)N2CCN(C3CC3)c3ccccc32)cc1Cl)NCCOCCOCCOCCOCCOCCOCCOCCOCCNC(=O)CCc1cc(Cl)c(Oc2ccncc2C(=O)N2CCN(C3CC3)c3ccccc32)cc1Cl [Compound 3]
- hypoglycemic effect (ob/ob mice): no significant effect
- hypoglycemic efficacy (ICR mice [5]): moderate

Structure (SMILES): O=C(c1cnccc1Oc1cc(Cl)ccc1Cl)N1CCN(C2CC2)c2ccccc21 [Compound 2, reference compound]
- Papp A to B (Caco-2 cells; [9]): 6.75 10^−6 cm/s
- Papp B to A (Caco-2 cells; [10]): 5.58 10^−6 cm/s
- solubility [6]: 0.441 µg/mL (≈ 1 µM)
- AUC0–120 min of blood glucose, signed change vs control (OGTT, Fig. 3B) (ICR mice [7]; 50 mg/kg p.o.): -16%
- decrease of blood glucose AUC vs control (OGTT) (ICR mice [7]; 50 mg/kg p.o. 1.5 h before glucose 4 g/kg): 16%

- melting point: 107 °C
- solubility (in words) [8]: poor solubility
- EC50 (human TGR5): 0.58 ± 0.11 nM
- EC50 (mouse TGR5): 3 ± 0.69 nM
Structure (SMILES): O=C(c1sccc1Oc1cc(Cl)ccc1Br)N1CCN(C2CC2)c2ccccc21 [Compound 9c]
